Here are results for three compounds from patent US10028999B2, “PAR-1 based therapeutic conjugates and uses thereof” (TEL HASHOMER MEDICAL RESEARCH INFRASTRUCTURE AND SERVICES …, priority 2014, dated 2018).

In data set [1] the test system is CNS-1 glioma cells. In words: Proliferation (XTT) of CNS-1 glioma cells. The data set is classed as cell-based, rat. The settings on record: CNS-1 cells. The method, then:
Several peptide moieties (Table 1) according to the present invention were synthesized. Proliferation was measured, by means of XTT, in C6 and CNS-1 glioma cell-lines (FIGS. 8A and 8B, respectively). In C6 cells, proliferation was measured before (black bar) and after cells were treated with the PAR-1 antagonist SCH79797 at various doses ranging from 10 nM to 10 μM (grey bars; FIG. 8A).
In another set of experiments, CNS-1 glioma cell-line was treated with increased doses of TLCK (125 nM to 14 mM), for 48 hours (FIG. 9; grey bars). Proliferation was measured by means of XTT in comparison to non-treated cells (control; black bar).
Initially, CNS-1 glioma cells were treated with increased concentrations of two peptide conjugates: a short conjugate of the formula tosyl-DPR-CK (comprising 3 amino acids, 3AA) or a long conjugate of the formula tosyl-NATLDPR-CK (comprising 7 amino acids, 7AA; SEQ ID NO: 4) in concentrations of 100 pM, 1 nM and 10 nM, for 48 hours (FIG. 10). FIG. 10 provides the results of an XTT assay used for assessing cell proliferation.
The effect of the peptide conjugate alone, or in combination with PAR-1 antagonist, SCH79797, on cell proliferation was determined in comparison to untreated cells or cells treated with PAR-1 antagonist (FIG. 13).
Background: Tetrazolium assays rely on reduction of a dye to a coloured formazan, in cell work by metabolically active cells.

Data set [2] concerns blood coagulation (prothrombin time). In words: Prothrombin time test. The data set is classed as biochemical. As to conditions: for PT: without conjugate 11.5; for Potency score in PT test: most potent (1) to least potent (5).
A further data set has as its system blood coagulation (aPTT). In words: Activated partial thromboplastin time test. The data set is classed as biochemical. The settings on record: for aPTT: without conjugate 30.5; for Potency score in aPTT test: most potent (1) to least potent (5).
In a further data set the test system is thrombin. Briefly: Thrombin time test. The data set is classed as biochemical. As to conditions: for TT: without conjugate 13.4; for Potency score in TT test: most potent (1) to least potent (5).
Another data set deals with Factor Xa. Briefly: Factor Xa activity test. The data set is classed as biochemical. The settings on record: 100 μM; for Potency score in Factor Xa activity test: most potent (1) to least potent (5); for Fxa: without conjugate 0.11.
In a further data set the target is Protein C (Homo sapiens, UniProt P04070). Briefly: Protein C activity test. The data set is classed as biochemical. As to conditions: for aPC: without conjugate 109; for Potency score in Protein C activity test: most potent (1) to least potent (5).
Chain of Protein C (P04070 212-461 limits assumed): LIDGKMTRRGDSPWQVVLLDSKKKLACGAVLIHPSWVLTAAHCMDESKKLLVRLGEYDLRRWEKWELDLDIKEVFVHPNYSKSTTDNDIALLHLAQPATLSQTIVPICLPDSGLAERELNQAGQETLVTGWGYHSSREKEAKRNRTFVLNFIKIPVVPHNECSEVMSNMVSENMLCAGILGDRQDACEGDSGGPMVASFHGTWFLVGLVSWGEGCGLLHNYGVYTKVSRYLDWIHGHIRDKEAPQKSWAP
Chain of Protein C (P04070 43-197 partner limits assumed): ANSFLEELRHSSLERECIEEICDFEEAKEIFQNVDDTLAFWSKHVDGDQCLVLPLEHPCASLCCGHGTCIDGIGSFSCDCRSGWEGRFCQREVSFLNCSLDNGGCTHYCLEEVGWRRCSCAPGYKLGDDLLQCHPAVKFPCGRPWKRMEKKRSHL
The test system of data set [3] is rat Glioblastoma multiforme (GBM) tumor. In words: Tumor size, edema and survival in GBM animal model. The data set is classed as in vivo. As to conditions: for change in edema surrounding the tumor: 1 μl/h for 7 days; for change in tumor size: 1 μl/h for 7 days intratumoral, MRI, grade 1 and 2 tumors; for rats with severe initial tumors surviving to the second MRI: none of 3 in controls. The method, then:
Cells (0.5×10^6 cells) from a highly malignant cell line of rat Glioblastoma multiforme (GBM) were injected by stereotactic methods into the parietal cortex of rats. Five (5) days later the brain of these rats were examined by MM and the tumors scored on a scale of 1-3 (1-small size tumor, 2-middle size tumor, 3-large size tumor) and for ventricular localization of the tumor. A catheter was placed in the brain tumor and attached to an osmotic pump (Alzet) releasing 1 μl/h for 7 days of one of the following three (3) treatments: saline (n=13), 6AA 2 μM (n=14) and 6AA 20 μM (n=14).
In order to account for the unequal distribution of initial tumor size, tumor and edema analyses were performed on rats with grade 1 and 2 tumors in the initial Mill (n=7, 6 and 5 for the saline, low and high treatment groups, respectively).
Survival was registered daily (FIG. 21).

A short description of a further data set: in vivo. The settings on record: ip, 2 micromolar, in 100 ul.
Data set [4] concerns CNS-1 glioma cells. On the procedure: The thrombin-like activity of CNS-1 cells was initially measured in control cells and in cells treated with (i) the short peptide conjugate (tosyl-DPR-CK, corresponding to a conjugate that includes the peptide termed 3AA) or (ii) the long conjugate (tosyl-NATLDPR-CK, corresponding to a conjugate that includes the peptide termed 7AA (SEQ ID No. 4)) at high ([…]) and low (100 nM) concentrations (FIG. 16).

For data set [5], the system named is EAN rats (experimental autoimmune neuritis). Briefly: Electrophysiological tests in EAN rats treated with thrombin inhibitors. The data set is classed as in vivo, rat. The method, then:
(§1) Electrophysiological tests of the sciatic nerves were performed on day 32 PI (post-immunization/induction) in EAN model (FIGS. 3A-C) and 8 weeks after STZ induction (FIG. 4A-C). Rats were anesthetized with Phenobarbital (IP, 24 mg/kg). Two pairs of monopolar needle electrodes were used to stimulate the tail nerves. Stimulating cathodes were inserted to a depth of 4-5 mm at the base of the tail and 4 cm distally. An anode at each location was inserted into the skin (4-5 mm depth) 1 cm proximal to the cathode. A ground electrode was placed between the distal stimulating electrode and the active recording electrode. Electromyography (EMG) recordings of responses of the tail muscles to proximal and distal stimuli, made by a pair of ring electrodes coated with electrode jelly and placed 1 cm distally to the distal stimulating electrode, were collected. The tail skin was wiped with alcohol prior to placing the electrodes. […] Both proximal and distal latencies were measured using time intervals from the stimulus artifact to the first deflection from baseline. To calculate the motor nerve conduction velocity (MNCV), the distance between stimulating cathodes was divided by the latency difference. Amplitudes of the compound muscle action potential (CMAP) from both proximal and distal stimulations were measured from the negative to the positive peaks. The reduction of the proximal CMAP compared with that of the distal CMAP was calculated by the equation: [(distal CMAP-proximal CMAP)/distalCMAP×100] and was defined as the R ratio. Temperature differences were minimized by conducting the study as soon as the anesthesia had taken effect and by warming the tail with a heating lamp.
(§2) FIGS. 3 and 4 each include 3 graphs summarizing the results from electrophysiological tests of treated rats, as follows: distal latency (3A, 4A) referring to the time, in milliseconds, between distal stimulation to recording; conduction velocity (3B, 4B) referring to the distance over time, in meters/seconds; and amplitude (3C, 4C) referring to the size of the response as measured in millivolts.

Data set [6] relates to STZ-induced diabetic rats. In words: Electrophysiological tests in STZ-induced diabetic rats treated with thrombin inhibitors. The data set is classed as in vivo, rat. On the procedure:
as §1, §2

pIC50: −log10 of the molar value. Peptide text beside a SMILES is read from it. * marks the point of attachment. Tos = Cc1ccc(S(=O)(=O)*)cc1; CH2Cl = ClC*

Procedure for in vivo: The concentrations of the peptide conjugates in the plasma of animals treated therewith was evaluated by a unique method that was based on the ability of the peptide conjugates to inhibit thrombin activity. […] The essay initiated by obtaining blood samples from animals which received the peptide conjugates (100 microliter containing 2 micromolar, i.p.). The blood samples, after being maintained in citrate buffered sample tubes, were subjected to centrifugation for plasma separation. Samples were then filtered through a membrane with a 10 kD molecular weight cutoff which excluded all blood coagulation factors (by addition of calcium to neutralize the anticoagulation effect of the citrate buffer). Coagulation factor-free plasma samples were then applied to the thrombin activity assay.
The resulting thrombin activities in each plasma sample either diluted (×10) or as is were given in arbitrary units (FIGS. 18-18D, diagonal shading and dotted bars, respectively). However, the actual concentration were deduced by comparing the activities to calibrated activities generated with known concentrations of the conjugate peptides. The calibration data included the following thrombin activities: activity in a sample of thrombin in the absence of plasma and conjugates (black bars, FIGS. 18A-18D); and activity in four samples of thrombin and known concentrations of the peptide conjugates (10 nM, 100 nM, 1 micromolar and 10 micromolar; bars 2nd to 5th from right in FIGS. 18A-18D).

For `Cc1ccc(S(=O)(=O)N[C@@H](C)C(=O)N[C@H](C(=O)N[C@@H](CC(C)C)C(=O)N[C@@H](CC(=O)O)C(=O)N2CCC[C@H]2C(=O)N[C@@H](CCCNC(=N)N)C(=O)CCl)[C@@H](C)O)cc1` [6AA, tosyl-ATLDPR-CK] (Tos-ATLDPR-CH2Cl), the “inhibition of cell proliferation” value in the data set with CNS-1 glioma cells [1] (48 hours, 10 μM, p<0.05) is “Significant inhibition”. Moreover, in the data set on CNS-1 glioma cells [1] (72 hours, all tested concentrations, p<0.05), the “proliferation compared to controls” value is reported as “significantly lower proliferation”. For the same compound, the PT in data set [2] (10 nM) is 11.5 s; in [2] (1 μM), 11.4 s; in data set [2] (100 μM), 16.5 s. Besides, the “Potency score in PT test” value in data set [2] (100 μM) is given as 3. Besides, the aPTT amounted to 30 s in the data set with blood coagulation (aPTT) (10 nM), 30.6 s in the data set with blood coagulation (aPTT) (1 μM) and 67.6 s with blood coagulation (aPTT) (100 μM). For the same compound, in the data set on blood coagulation (aPTT) (100 μM), the “Potency score in aPTT test” value was 3. The TT is 13.9 s with thrombin (10 nM), 18.5 s in the data set with thrombin (1 μM) and greater than 80 s with thrombin (100 μM). For the same compound, the “Potency score in TT test” value in the data set with thrombin (1 μM) is 3. Also, the “Potency score in Factor Xa activity test” value in the data set with Factor Xa stood at 3. For the same compound, the Fxa with Factor Xa is on record as 0.36. Moreover, the aPC was determined as 108 on Protein C (1 μM) and 11 at Protein C (100 μM). The “Potency score in Protein C activity test” value at Protein C (100 μM) was determined as 2. In addition, the “change in edema surrounding the tumor” value in data set [3] (2 μM) and in [3] (20 μM) was “reduction in the edema” in each case. The “change in tumor size” value in [3] (2 μM) is “A similar trend was observed”; in data set [3] (20 μM, p=0.030), “reduced tumor size to half of the original size”. Moreover, the “rats with severe initial tumors surviving to the second MRI” value in data set [3] (2 μM) is 1 out of 3; in [3] (20 μM), “all 3”. Further, in [3] (20 μM, registered daily), the survival entry is given as “clear trend to increased survival”. In addition, the level at time molar in “in vivo” was less than 10 nM.

In the case of `Cc1ccc(S(=O)(=O)N[C@@H](CC(N)=O)C(=O)N[C@@H](C)C(=O)N[C@H](C(=O)N[C@@H](CC(C)C)C(=O)N[C@@H](CC(=O)O)C(=O)N2CCC[C@H]2C(=O)N[C@@H](CCCNC(=N)N)C(=O)CCl)[C@@H](C)O)cc1` [7AA, tosyl-NATLDPR-CK] (Tos-NATLDPR-CH2Cl), the pIC50 in the data set on CNS-1 glioma cells [4] is 11.00. Further, the “inhibition of cell proliferation” value was “Significant inhibition” in the data set on CNS-1 glioma cells [1] (48 hours, 10 μM, p<0.05) and “significant inhibition” in the data set with CNS-1 glioma cells [1] (XTT, 48 hours, 10 nM). Besides, the “inhibition of cell proliferation, in combination with PAR-1 antagonist” value with CNS-1 glioma cells [1] (XTT, PAR-1 antagonist 1 μM, compared to untreated cells and to PAR-1 antagonist alone) is “greater inhibition on cell proliferation”. In addition, the “inhibition of cell proliferation, applied alone” value with CNS-1 glioma cells [1] (XTT, compared to untreated cells and to PAR-1 antagonist alone) is reported as “greater inhibition on cell proliferation”. Also, the PT was determined as 11.5 s in data set [2] (10 nM), 11.2 s in data set [2] (1 μM) and 17.4 s in data set [2] (100 μM). Also, the “Potency score in PT test” value in [2] (100 μM) came out at 2. Further, the results for the aPTT in the data set on blood coagulation (aPTT) (10 nM), in the data set with blood coagulation (aPTT) (1 μM) and in the data set on blood coagulation (aPTT) (100 μM) were 29.9 s, 30.7 s and 85.2 s, respectively. Further, the “Potency score in aPTT test” value with blood coagulation (aPTT) (100 μM) is reported as 2. In addition, the TT with thrombin (10 nM) is 13.5 s; in the data set on thrombin (1 μM) it was 24.1 s; in the data set with thrombin (100 μM) it was greater than 80 s. The “Potency score in TT test” value in the data set with thrombin (1 μM) is listed as 2. Besides, the “Potency score in Factor Xa activity test” value in the data set on Factor Xa came to 2. This compound had a Fxa in the data set with Factor Xa of 0.43. The aPC at Protein C (1 μM) came to 110; on Protein C (100 μM), 25. On Protein C (100 μM), the “Potency score in Protein C activity test” value turned out to be 4. Also, the level at time molar in the data set “in vivo” is roughly 10 nM.

As to “N alpha-tosyl-L-lysine chloromethyl ketone [TLCK]”, the conduction velocity was 40.55±6.7 m/sec in data set [5] (daily treatment for 2 weeks, TLCK 4.4 mg/kg, NAPAP 120 μM/kg, untreated EAN 23.6±1.2) and 41.95±3.9 m/sec in data set [6] (STZ rats, daily treatment for 2 weeks, TLCK 4.4 mg/kg, NAPAP 120 μM/kg, untreated STZ 28.5±2.8). Besides, the proximal amplitude in data set [5] (untreated EAN 0.76±0.33, non-significant) is given as 1.36±0.49 millivolts; in data set [6] (STZ rats, untreated STZ 0.48±0.13, insignificant), 1.81±0.8 millivolts. The latency in [5] (untreated EAN 1.43±0.023, control 0.54±0.03) was determined as 1.28 ± 0.18 ms; in data set [6] (STZ rats, untreated STZ 1.93±0.139, control 1.29±0.057) it was 1.44 ± 0.04 ms. Also, the internal bleeding entry in [6] (animals treated with thrombin inhibitors) is “caused severe internal bleeding”. Also, the “concentration at which glioma-cell proliferation decreased” value with CNS-1 glioma cells [1] (48 hours) is listed as “higher than 1 μM”. For the same compound, the proliferation-inhibition entry in the data set with CNS-1 glioma cells [1] (48 hours, 1 μM to 125 nM) is “No significant proliferation-inhibition”; with CNS-1 glioma cells [1] (48 hours, 8-33 μM), “significant proliferation-inhibition”. In addition, the “proliferation / cell death” value with CNS-1 glioma cells [1] (48 hours, 6.7 mM and 14 mM) is listed as “caused cell death”. Moreover, the “proliferation, administered alone” value with CNS-1 glioma cells [1] (XTT, 1 μM) is given as “did not inhibit proliferation”. Besides, the “proliferation-inhibition, combined treatment with the PAR-1 antagonist” value in the data set on CNS-1 glioma cells [1] (compared with PAR-1 antagonist (1 μM) alone) is reported as “significantly increased said inhibitory effect”.

In general, pIC50 refers to −log10 of the IC50, conventionally taken in molar units. The low end stands for a high IC50, the high end for a low IC50.
